In patent publication US7101896B2, “Pharmaceutical compositions and methods for use” (Targacept, Inc., priority 1999, dated 2006) one finds Ki data, which are given here for eight molecules.

CNS nicotinic receptors, sequence (P09483 31-630): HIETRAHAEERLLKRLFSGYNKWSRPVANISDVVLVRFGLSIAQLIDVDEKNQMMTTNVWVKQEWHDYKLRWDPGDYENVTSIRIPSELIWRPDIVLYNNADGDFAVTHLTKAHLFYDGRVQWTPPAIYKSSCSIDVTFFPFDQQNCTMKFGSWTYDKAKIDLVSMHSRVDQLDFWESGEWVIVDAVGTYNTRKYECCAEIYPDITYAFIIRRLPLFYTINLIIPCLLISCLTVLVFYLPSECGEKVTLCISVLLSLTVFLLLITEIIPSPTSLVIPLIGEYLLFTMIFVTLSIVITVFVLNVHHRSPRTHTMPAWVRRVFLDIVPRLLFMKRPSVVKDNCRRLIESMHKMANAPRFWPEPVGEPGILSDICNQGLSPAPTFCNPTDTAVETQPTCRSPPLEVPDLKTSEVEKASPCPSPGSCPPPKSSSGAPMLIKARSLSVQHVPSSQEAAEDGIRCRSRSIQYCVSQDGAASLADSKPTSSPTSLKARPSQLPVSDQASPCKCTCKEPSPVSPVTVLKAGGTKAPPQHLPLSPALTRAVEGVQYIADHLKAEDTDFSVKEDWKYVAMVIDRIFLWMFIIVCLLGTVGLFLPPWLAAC
CNS nicotinic receptors, sequence (P12390 25-500): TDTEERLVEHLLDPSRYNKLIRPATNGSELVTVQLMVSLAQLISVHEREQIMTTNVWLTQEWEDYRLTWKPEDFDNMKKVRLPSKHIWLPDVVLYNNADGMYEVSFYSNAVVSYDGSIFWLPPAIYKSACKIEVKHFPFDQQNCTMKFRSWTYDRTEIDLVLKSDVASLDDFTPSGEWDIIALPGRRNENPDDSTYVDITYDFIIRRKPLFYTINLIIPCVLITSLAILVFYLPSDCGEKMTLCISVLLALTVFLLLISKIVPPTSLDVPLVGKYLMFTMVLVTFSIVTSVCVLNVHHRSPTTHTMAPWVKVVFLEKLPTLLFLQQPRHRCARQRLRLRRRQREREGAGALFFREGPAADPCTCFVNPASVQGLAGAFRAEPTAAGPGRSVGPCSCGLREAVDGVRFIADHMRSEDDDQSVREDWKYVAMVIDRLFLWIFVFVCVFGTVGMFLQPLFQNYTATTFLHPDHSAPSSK

The first assay addresses CNS nicotinic receptors (Rattus norvegicus, UniProt P09483+P12390). The assay can be described thus: Determination of binding to relevant receptor sites. Conditions: calculated from the IC50 values using the method of Cheng et al.; techniques of U.S. Pat. No. 5,597,919; read-out: Ki (inhibition constant, receptor binding).
Turning to “(E,S)-3-cyclopentyloxy-5-(pyrrolidin-2-ylvinyl)pyridine hemigalactarate [Sample No. 19]”, the inhibition constant (Ki) was 51 nM. As for “(S)-3-(3-pyridyloxy)-5-(pyrrolidin-2-ylethynyl)pyridine hemigalactarate [Sample No. 15]”, the Ki is 13 nM.

“(S)-3-(4-methoxyphenoxy)-5-(pyrrolidin-2-ylethynyl)pyridine hemigalactarate [Sample No. 10]”: the Ki is 33 nM. Same read-out and setting: as for “(S)-3-(phenoxyphenyl)-5-(pyrrolidin-2-ylethynyl)pyridine hemigalactarate [Sample No. 9]”, the figure is 530 nM; as for “(S)-3-(pyrrolidin-2-ylethynyl)-5-(tetrahydropyran-4-yloxy)pyridine hemigalactarate [Sample No. 16]”, 7 nM. The same measure, in the same setting: then “(S)-3-isopropoxy-5-(pyrrolidin-2-ylethynyl)pyridine hemigalactarate [Sample No. 7]”, with 2 nM. Still for that read-out and setting: as for “(S)-(E)-3(2-pyrrolidin-2-ylvinyl)pyridine hemigalactarate [Sample No. 2]”, the figure is 306 nM.

The same assay, now with this note: read-out: Ki (inhibition constant, receptor binding).
Turning to `Oc1ccc(Oc2cncc(C#C[C@@H]3CCCN3)c2)cc1` [Sample No. 11, (S)-3-(4-hydroxyphenoxy)-5-(pyrrolidin-2-ylethynyl)pyridine], the inhibition constant (Ki) came out at 2 nM.

The Ki is the dissociation constant of the complex between target and ligand, obtained from inhibition or displacement.
